Read-outs that look alike come from different tables or passages of the source.
Key:
[1] = tested on: Parkinson's patients with L-dopa induced dyskinesia (LIDs); assay: Human clinical study, 24-hour patient home diaries, good ON time; type: in vivo; conditions: 2.0 mg up to 10 mg such as 2.5, 5.0 or 7.5 mg, compared with an amount equal to or above 10 mg
Excerpt: Home diaries have gained wide acceptance as endpoints for clinical development of therapeutics aiming to reduce treatment-related motor complications. Motor fluctuations are associated with compromise in activities of daily living and health-related quality of life. In clinical trials performed by Integrative Research Laboratories Sweden AB patients record their 24-hours motor function in 30-minute intervals, beginning at midnight. For each 30-minute interval the patient rates the state he or she has been in for the past 30 minutes; OFF, ON without troublesome dyskinesia or ON with troublesome dyskinesia. The patient also denoted the time when he or she has been asleep.
In general, an “OFF” time reduction or “good ON-time” increase of 1 hour may be considered clinically significant and has been used as an assumption in power calculations in clinical trials. […]
A valid diary is defined as not having more than 2 hours of invalid data entries (4 invalid entries) over a given 24-hour period. An invalid diary entry is defined as more than one entry recorded in each half-hour interval, an unreadable entry, or the absence of an entry in each half-hour interval. […]

[2] = Hygroscopicity test, weighed samples kept at varied humidity at 30° C. for one week; type: physicochemical; conditions: for Hygroscopicity (in words): any tested relative humidity
Experimental: After one week, the samples were weighed again and based on the original weight the percentage weight difference was calculated.

[3] = Experimental: The temperature was 25° C. using step intervals of 10% between 0% and 95% RH in two consecutive cycles.
[4] = Plasma concentration of the drug in the human clinical study; type: in vivo; conditions: 2 hours after administration in the morning, 2.5 mg b.i.d.-10 mg b.i.d., patients

For `CCCNCCOc1cc(F)cc(S(C)(=O)=O)c1` [Example 2, [2-(3-fluoro-5-methanesulfonylphenoxy)ethyl](propyl)amine], the “Good ON time (in words)” value [1] was “increased the good ON time to a larger extent”.

In the case of `CCCNCCOc1cc(F)cc(S(C)(=O)=O)c1` [Formula IV], the “Hygroscopicity (in words)” value [2] is reported as “not being hygroscopic” and the Weight change ([2]; at any humidity such as any relative humidity) is reported as at most 0.3 % by weight.

With `CCCNCCOc1cc(F)cc(S(C)(=O)=O)c1.Cl` [hydrochloric acid salt, hydrochloric acid salt of [2-(3-fluoro-5-methanesulfonylphenoxy)-ethyl](propyl)amine] the Weight gain ([3]; 95% relative humidity and 25° C., DVS) was “approximately 3%” and the “Hygroscopicity (in words)” value ([3]; high relative humidities) was “hygroscopic at high relative humidities”.

For `CCCNCCOc1cc(F)cc(S(C)(=O)=O)c1` [Example 7, [2-(3-fluoro-5-methanesulfonylphenoxy)ethyl](propyl)amine hemi-L-tartrate], the “Hygroscopicity (in words)” value [2] was “very low hygroscopicity”, the “Hygroscopicity (in words)” value ([2]; listed as L-tartaric acid salt) was “not hygroscopic at any relative humidities” and the Weight change ([2]; even at very high relative humidity such as 73%, 75%, 83% or 97% for 7 days at 30° C.) was at most 0.3%. It also gave a concentration at 2 h [4] of 50 to 200 nM.
